Laboratory results: article PMC2362650, “Phase I and pharmacokinetic study of the topoisomerase II catalytic inhibitor fostriecin” (British Journal of Cancer, 1999)
Where “and” joins values, the source holds several entries; their conditions need not be identical. Equal entries are not always repeated. Where two headings read alike, the source gives them in different places.

Experiments:
[1] = Plasma and urine pharmacokinetics (HPLC-UV) in patients after 60-min IV infusion; type: in vivo, human; settings: for Cmax / AUC / MRT / half-life: human, plasma, intravenous; for Cmax: observed value
From the text: Fostriecin (CI-920) is a topoisomerase (topo) II catalytic activity inhibitor (Boritzki et al, 1988) (Figure 1). This novel class of topo II-targeting drugs is considered of potential value for treatment of patients with tumours resistant to classic topo II poisons, including anthracyclines and podophyllotoxins (Cummings and Smyth, 1993). The nuclear enzyme topo II is essential for the regulation of DNA conformation (reviewed in Osheroff et al, 1991). Central in its action is the formation of a complex with DNA. Stabilization of this complex by topo II poisons induces DNA damage and cell death (Froelich-Ammon and Osheroff, 1995). Decreased complex formation due to decreased topo II levels is considered to be an important mechanism of tumour-resistance to topo II poisons (Beck and Danks, 1991). The topo II catalytic inhibitor fostriecin is expected to have increased activity against tumour cells with low topo II levels and this was confirmed in in vitro studies (De Jong et al, 1991). […] Because of increased toxi- city of fostriecin in dogs compared to mice, a dose below one-third of the one-tenth mouse equivalent LD10, 2 mg m-2 day-1, was chosen as starting dose in humans (Clinical Brochure Fostriecin, 1991). […] We also performed an analysis of the human pharmacokinetics of fostriecin and ex vivo experiments to investigate if the plasma drug concentrations achieved were sufficient to inhibit a tenipo- side-resistant tumour cell line. The maximum tolerated dose (MTD) of fostriecin could not be established because drug supply was stopped prematurely. However, results of this study may provide a basis for continued clinical development of this agent. PATIENTS AND METHODS Patient selection, drug administration and evaluation Patient eligibility criteria were: histologically confirmed diagnosis of a solid tumour, no longer amenable to established forms of treatment; age 18-75 years; Eastern Cooperative Oncology Group (ECOG) performance status 2; life expectancy 12 weeks; no Phase I and pharmacokinetic study of the topoisomerase II catalytic inhibitor fostriecin RS de Jong1, NH Mulder1, DRA Uges2, DTh Sleijfer1, FJP Hoppener4, HJM Groen3, PHB Willemse1, WTA van der Graaf1 and EGE de Vries1 Departments of 1Medical Oncology, 2Pharmacy and Toxicology, and 3Pulmonary Diseases, University Hospital Groningen, The Netherlands; 4EORTC New Drug Development Office, Amsterdam, The Netherlands Summary We conducted a phase I and pharmacokinetic study of the topoisomerase II catalytic inhibitor fostriecin. Fostriecin was administered intravenously over 60 min on days 1-5 at 4-week intervals. Dose was escalated from 2 mg m-2 day-1 to 20 mg m-2 day-1 in 20 patients. Drug pharmacokinetics was analysed with high performance liquid chromatography with UV-detection. Plasma collected during drug administration was tested in vitro for growth inhibition of a teniposide-resistant small-cell lung cancer (SCLC) cell line. The predominant toxicities were elevated liver transaminases (maximum common toxicity criteria (CTC) grade 4) and serum creatinine (maximum CTC grade 2). […] Duration of elevated alanine-amino transferase (ALT) was dose-limiting in one patient at 20 mg m-2. Other frequent toxicities were grade 1-2 nausea/vomiting, fever and mild fatigue. […] A metabolite, most probably dephosphorylated fostriecin, was detected in plasma and urine. […] However, further escalation seems possible and is warranted to achieve potentially effective drug levels. Fostriecin has a short plasma half-life and longer duration of infusion should be considered. […]

[2] = design: method as in Clinical Brochure Fostriecin, 1991; settings: mouse; 5-day schedule; ref Clinical Brochure Fostriecin, 1991; cited from earlier work
[3] = patient no. 1, 2 mg m-2, day 1 course 1, one-compartment model
[4] = patient no. 3, 2 mg m-2, day 1 course 1, one-compartment model
[5] = patient no. 4, 2 mg m-2, day 1 course 1, one-compartment model
[6] = patient no. 5, 4 mg m-2, day 1 course 1, one-compartment model
[7] = patient no. 6, 4 mg m-2, day 1 course 1, one-compartment model
[8] = patient no. 7, 4 mg m-2, day 1 course 1, two-compartment model
[9] = patient no. 11, 6.6 mg m-2, day 1 course 1, two-compartment model
[10] = patient no. 12, 6.6 mg m-2, day 1 course 1, two-compartment model
[11] = patient no. 13, 10 mg m-2, day 1 course 1, two-compartment model
[12] = patient no. 15, 10 mg m-2, day 1 course 1, two-compartment model
[13] = patient no. 16, 12.2 mg m-2, day 1 course 1, two-compartment model
[14] = patient no. 18, 12.2 mg m-2, day 1 course 1, two-compartment model
[15] = patient no. 19, 20 mg m-2, sampling on day 1 of course 2, two-compartment model
[16] = patient no. 20, 20 mg m-2, day 1 course 1, two-compartment model

SMILES: C[C@@](O)(/C=C/[C@H]1CC=CC(=O)O1)[C@@H](C[C@@H](O)\C=C/C=C\C=C\CO)OP(=O)(O)O [fostriecin]
- Cmax ([1]; 12.2 mg, patient no. 18, 12.2 mg m-2, day 1 course 1): 2790 ng/mL
- AUC ([1]; 12.2 mg, patient no. 18, 12.2 mg m-2, day 1 course 1, two-compartment model): 5320 ng·h/mL
- MRT ([1]; 12.2 mg, patient no. 18, 12.2 mg m-2, day 1 course 1, two-compartment model, read-out: MRT): 3.61 h
- half-life ([1]; 12.2 mg, patient no. 18, 12.2 mg m-2, day 1 course 1, two-compartment model, read-out: t1/2 (initial) (converted)): 27.6 min
- half-life ([1]; 12.2 mg, patient no. 18, 12.2 mg m-2, day 1 course 1, two-compartment model, read-out: t1/2 (terminal) (converted)): 306 min
- Cmax ([1]; 20 mg, patient no. 19, 20 mg m-2, sampling on day 1 of course 2): 3850 ng/mL
- AUC ([1]; 20 mg, patient no. 19, 20 mg m-2, sampling on day 1 of course 2, two-compartment model): 4450 ng·h/mL
- MRT ([1]; 20 mg, patient no. 19, 20 mg m-2, sampling on day 1 of course 2, two-compartment model, read-out: MRT): 0.38 h
- half-life ([1]; 20 mg, patient no. 19, 20 mg m-2, sampling on day 1 of course 2, two-compartment model, read-out: t1/2 (initial) (converted)): 1.8 min
- half-life ([1]; 20 mg, patient no. 19, 20 mg m-2, sampling on day 1 of course 2, two-compartment model, read-out: t1/2 (terminal) (converted)): 32.4 min
- Cmax ([1]; 20 mg, patient no. 20, 20 mg m-2, day 1 course 1): 6350 ng/mL
- AUC ([1]; 20 mg, patient no. 20, 20 mg m-2, day 1 course 1, two-compartment model): 9960 ng·h/mL
- MRT ([1]; 20 mg, patient no. 20, 20 mg m-2, day 1 course 1, two-compartment model, read-out: MRT): 0.83 h
- half-life ([1]; 20 mg, patient no. 20, 20 mg m-2, day 1 course 1, two-compartment model, read-out: t1/2 (initial) (converted)): 0.6 min
- half-life ([1]; 20 mg, patient no. 20, 20 mg m-2, day 1 course 1, two-compartment model, read-out: t1/2 (terminal) (converted)): 45.6 min
- half-life ([1]; two-compartment model, 95% CI 0-0.76 h, read-out: mean plasma half-life (initial) (converted)): 21.6 min
- MRT ([1]; two-compartment model, 95% CI 0.41-1.97 h, read-out: mean residence time (MRT)): 1.19 h
- half-life ([1]; two-compartment model, 95% CI 0.41-2.61 h, read-out: mean plasma half-life (terminal) (converted)): 90.6 min
- renal excretion as share of drug elimination ([1]; mean, patient nos 12-20, 95% CI 10-17.6%): 14.6% and 15%
- Cl [1, 3]: 5.14 l h-1 m-2
- Vd [1, 3]: 4.44 l m-2
- Cl [1, 4]: 2.40 l h-1 m-2
- Vd [1, 4]: 1.86 l m-2
- Cl [1, 5]: 4.11 l h-1 m-2
- Vd [1, 5]: 2.10 l m-2
- Cl [1, 6]: 2.81 l h-1 m-2
- Vd [1, 6]: 2.03 l m-2
- Cl [1, 7]: 3.05 l h-1 m-2
- Vd [1, 7]: 2.03 l m-2
- Cl [1, 8]: 2.31 l h-1 m-2
- Vd [1, 8]: 6.76 l m-2
- Cl [1, 9]: 4.06 l h-1 m-2
- Vd [1, 9]: 2.75 l m-2
- Cl [1, 10]: 2.63 l h-1 m-2
- Vd [1, 10]: 4.64 l m-2
- Cl [1, 11]: 2.97 l h-1 m-2
- Vd [1, 11]: 3.98 l m-2
- Cl [1, 12]: 2.66 l h-1 m-2
- Vd [1, 12]: 5.34 l m-2
- Cl [1, 13]: 2.84 l h-1 m-2
- Vd [1, 13]: 4.80 l m-2
- Cl [1, 14]: 2.32 l h-1 m-2
- Vd [1, 14]: 17.09 l m-2
- Cl [1, 15]: 4.52 l h-1 m-2
- Vd [1, 15]: 3.39 l m-2
- Cl [1, 16]: 1.83 l h-1 m-2
- Vd [1, 16]: 2.01 l m-2
- mean volume of distribution (Vd) ([1]; two-compartment model, 95% CI 2.16-9.11): 5.64 l m-2
- mean Cl (apparent total body clearance) ([1]; two-compartment model, 95% CI 2.24-3.57): 2.90 l h-1 m-2
- mean Cl (apparent total body clearance) ([1]; unit conversion of 2.90 l h-1 m-2): 48.3 ml min-1 m-2
- LD10 [2]: 120 mg m-2 day-1
